# Laboratory results taken from ChEMBL document CHEMBL1687731, “Reverse transcriptase inhibitors as potential colorectal microbicides” (Antimicrob Agents Chemother, 2009).
# pIC50: −log10 of the molar value. The source made the active and inactive calls. The calls are words filed in the database; no cut-off is given here.
# Tests used:
# [1] = tested on: Human immunodeficiency virus 1; assay: Antiviral activity against X4 tropic HIV1 RF infected in human TZM-b1 cells after 2 hrs by luciferase assay; type: functional, organism-based; conditions: Human immunodeficiency virus 1, RF, TZM-b1, 2 h
# [2] = tested on: Human immunodeficiency virus 1; assay: Antiviral activity against X4 tropic HIV1 3B infected in human TZM-b1 cells after 2 hrs by luciferase assay; type: functional, organism-based; conditions: Human immunodeficiency virus 1, 3B, TZM-b1, 2 h
# [3] = tested on: Human immunodeficiency virus 1; assay: Antiviral activity against R5 tropic HIV1 BaL infected in human TZM-b1 cells after 2 hrs by luciferase assay; type: functional, organism-based; conditions: Human immunodeficiency virus 1, BaL, TZM-b1, 2 h
# [4] = tested on: Human immunodeficiency virus 1; assay: Antiviral activity against R5 tropic HIV1 YU.2 infected in human TZM-b1 cells after 2 hrs by luciferase assay; type: functional, organism-based; conditions: Human immunodeficiency virus 1, YU.2, TZM-b1, 2 h
# [5] = tested on: Human immunodeficiency virus 1; assay: Antiviral activity against X4 tropic HIV1 NL4.3 infected in human TZM-b1 cells after 2 hrs by luciferase assay; type: functional, organism-based; conditions: Human immunodeficiency virus 1, NL4.3, TZM-b1, 2 h
# [6] = tested on: Human immunodeficiency virus 1; assay: Antiviral activity against R5 tropic HIV1 R8.BaL infected in human TZM-b1 cells after 2 hrs by luciferase assay; type: functional, organism-based; conditions: Human immunodeficiency virus 1, R8.BaL, TZM-b1, 2 h
# [7] = tested on: Human immunodeficiency virus 1; assay: Antiviral activity against X4 tropic HIV1 RF infected in human PBMC assessed as inhibition of p24 antigen production after 2 hrs by ELISA; type: functional, organism-based; conditions: Human immunodeficiency virus 1, RF
# [8] = Cytotoxicity against human TZM-bl cells by MTT assay; type: cell-based
# [9] = tested on: Human immunodeficiency virus 1; assay: Antiviral activity against HIV1 A17 harboring reverse transcriptase K103N, Y181C mutant infected in human TZM-b1 cells after 2 hrs by luciferase assays; type: functional, organism-based
# [10] = tested on: Human immunodeficiency virus 1; assay: Antiviral activity against R5 tropic HIV1 YU.2 infected in human PBMC assessed as inhibition of p24 antigen production after 2 hrs by ELISA; type: functional, organism-based; conditions: Human immunodeficiency virus 1, YU.2, 2 h
# [11] = tested on: Human immunodeficiency virus 1; assay: Antiviral activity against X4 tropic HIV1 NL4.3 infected in human PBMC assessed as inhibition of p24 antigen production after 2 hrs by ELISA; type: functional, organism-based; conditions: Human immunodeficiency virus 1, NL4.3, 2 h
# [12] = tested on: Human immunodeficiency virus 1; assay: Antiviral activity against R5 tropic HIV1 R8.BaL infected in human PBMC assessed as inhibition of p24 antigen production after 2 hrs by ELISA; type: functional, organism-based; conditions: Human immunodeficiency virus 1, R8.BaL
# [13] = tested on: PBMC; assay: Cytotoxicity against human PBMC by MTT assay; type: cell-based
# [14] = tested on: Human immunodeficiency virus 1; assay: Antiviral activity against HIV1 isolate 71361-1 harboring reverse transcriptase K65R mutant infected in human TZM-b1 cells after 2 hrs by luciferase assays; type: functional, organism-based
# [15] = tested on: Human immunodeficiency virus 1; assay: Antiviral activity against HIV1 isolate 8415-2 harboring reverse transcriptase K65R mutant co-expressing M184V mutant infected in human TZM-b1 cells after 2 hrs by luciferase assays; type: functional, organism-based; conditions: Human immunodeficiency virus 1, isolate 8415-2, TZM-b1, 2 h
# [16] = tested on: Human immunodeficiency virus 1; assay: Ratio of IC50 for wild type HIV1 to IC50 for HIV1 A17 harboring reverse transcriptase K103N, Y181C mutant; type: functional
structure (smiles),measurement,setting,value
CC(C)=CCOc1cc(NC(=S)c2ccoc2C)ccc1Cl [UC 781],pIC50,[1],8.22
same,pIC50,[2],8.10
same,pIC50,[3],8.03
same,pIC50,[4],8.23
same,pIC50,[5],7.99
same,pIC50,[6],8.23
same,pIC50,[7],8.04
same,Activity,[8],Non-toxic
same,Activity,[9],inactive
same,pIC50,[10],7.95
same,pIC50,[11],7.75
same,pIC50,[12],7.99
same,Activity,[13],Non-toxic
C[C@H](Cn1cnc2c(N)ncnc21)OCP(=O)(O)O [TENOFOVIR ANHYDROUS],pIC50,[1],5.39
same,pIC50,[2],5.64
same,pIC50,[3],5.60
same,pIC50,[4],5.48
same,pIC50,[5],5.17
same,pIC50,[6],5.34
same,pIC50,[7],5.80
same,Activity,[8],Non-toxic
same,pIC50,[10],6.05
same,pIC50,[11],5.86
same,pIC50,[12],6.00
same,Activity,[13],Non-toxic
same,pIC50,"[14]; Human immunodeficiency virus 1, isolate 71361-1, TZM-b1, 2 h",< 4.52
same,pIC50,[15],6.09
Cc1cc(C)c(Nc2ccnc(Nc3ccc(C#N)cc3)n2)c(C)c1 [DAPIVIRINE],pIC50,[1],9.08
same,pIC50,[2],9.28
same,pIC50,[3],9.10
same,pIC50,[4],9.82
same,pIC50,[5],9.43
same,pIC50,[6],9.72
same,pIC50,[7],8.83
same,Activity,[8],Non-toxic
same,Ratio IC50,[16],17
same,pIC50,"[9]; Human immunodeficiency virus 1, A17, TZM-b1, 2 h",8.08
same,pIC50,[10],8.95
same,pIC50,[11],8.94
same,pIC50,[12],8.96
same,Activity,[13],Non-toxic
same,Activity,[14],inactive
